Measurements as given in patent US20200030284A1, “MEDICAL USE OF ARTEMISININ DERIVATIVE FOR TREATING INFLAMMATORY BOWEL DISEASE” (SHANGHAI INSTITUTE OF MATERIA MEDICA,CHINESE ACADEMY OF …, priority 2017, published 2020).
Counter-ions that a name gives are not always drawn.

Tests used:
Type in all cases: in vivo, Balb/c mice
[1] = tested on: macrophages and neutrophils in mesenteric lymph nodes and spleen of DSS-induced colitis mice; test: Inflammatory cell detection by flow cytometry in mesenteric lymph nodes and spleen; details: 10 mg/kg intragastric, FIG. 3A and 3B
Method: FIG. 3 is graphs showing the results of flow cytometry analysis, in which a single cell suspension was prepared from mesenteric lymph nodes and spleen of mice in various groups taken out at the end of the experiment, and the cells were labeled with the corresponding fluorescent antibody. FIG. 3A is for the isolated mesenteric lymph node cells, and FIG. 3B is for the isolated spleen lymphocytes, they were stained withanti-F4/80 antibody+anti-CD11b antibody (double positive cells were recognized as macrophages), and with anti-Gr-1 antibody+anti-CD11 b antibody (double positive cells were identified as neutrophils) respectively.
(§1) 1. Mice were randomly divided into a normal control group, a model group, a cyclosporin A (CsA) (20 mg/kg) treatment group, a 5-aminosalicylic acid (5-ASA) (50 mg/kg) treatment group, and the artemisinin derivative having anti-inflammatory immunosuppressive activity SM934, SM905, SM933 and SM735 (10 mg/kg each) treatment groups, with 8 mice per group. Except for the mice in the normal control group, for the mice in the other groups including the model group, the cyclosporine A treatment group, the 5-aminosalicylic acid treatment group, and the 4 artemisinin derivative treatment groups, 5% DSS was added to the drinking water for 7 consecutive days for induction of the intestinal inflammation model.
2. […]

[2] = tested on: pro-inflammatory cytokines in colon tissue of DSS-induced colitis mice; test: Detection of pro-inflammatory cytokine levels in colon tissue by ELISA; details: colon homogenate, per unit of total protein, 10 mg/kg intragastric, FIG. 5
Method: as §1
2. From the start of the induction to the end of the experiment, mice in the various treatment groups were given cyclosporine A, 5-aminosalicylic acid 5-ASA or4 artemisinin derivatives (10 mg/kg) respectively by intragastric administration to conduct a therapeutic intervention.
[IV] Detection of Pro-Inflammatory Cytokine Levels in Colon Tissue
1. […] After centrifugation, the protein concentration in the homogenate supernatant was quantified with a BCA kit.
2. ELISA was used to detect the content of pro-inflammatory cytokine in the supernatant, which was expressed as the content of cytokine per unit of total protein.

[3] = tested on: CD11b+ monocytes in colon tissue of DSS-induced colitis mice; test: Inflammatory cell detection in colon cryosections by fluorescence confocal microscopy; details: middle segment of colon, 10 mg/kg intragastric, FIG. 4
Method: FIG. 4 is photographs showing the photographing and analyzing results under fluorescence confocal microscopy in which, after the middle segments of colons of mice in various groups were cryosectioned, the nucleus were stained with DAPI fluorescent antibody, and the mononuclear lymphocytes were stained with anti-CD11b antibody.
as §1
2. […]
2. The middle segment of the colon was cryosectioned, stained with the corresponding fluorescent antibody, photographed under a fluorescence confocal microscope and analyzed.

C[C@@H]1CCC2[C@@H](C)[C@@H](OCCN)O[C@H]3O[C@@]4(C)CCC1[C@@]23OO4 (stereo partly drawn) [SM934, β-aminoarteether maleate]
reduced: proportion of macrophages (F4/80+ and CD11b+ double positive cells) [1] | proportion of neutrophils (Gr-1+ and CD11b+ double positive cells) [1] | levels of pro-inflammatory cytokines in colon tissue [2] | infiltration of monocytes (CD11b+ cells) in colon tissue [3]
